Experimental findings from ChEMBL document CHEMBL3639378, “Morpholinone compounds as factor IXA inhibitors” (2015) are described below.

For the assay, the target named is Coagulation factor IX (Homo sapiens, UniProt P00740). As to the kind of experiment: Test substances dissolved in buffer A (50 mM α,α,α-tris (hydroxymethyl)methylamine (Tris), 100 mM NaCl, 5 mM CaCl2, 15% (v/v) ethylene glycol, pH 8.0) were mixed with factor IXa (2.0 μg/ml final concentration). The enzyme reaction was started by addition of SPECTROFLUOR FIXa (100 μM final concentration).
Coagulation factor IX, sequence (P00740 47-191 limits assumed): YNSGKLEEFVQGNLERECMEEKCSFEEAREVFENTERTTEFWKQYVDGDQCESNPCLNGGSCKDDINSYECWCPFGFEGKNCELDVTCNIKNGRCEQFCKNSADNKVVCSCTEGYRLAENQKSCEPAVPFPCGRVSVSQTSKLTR
Coagulation factor IX, sequence (P00740 227-461 limits assumed): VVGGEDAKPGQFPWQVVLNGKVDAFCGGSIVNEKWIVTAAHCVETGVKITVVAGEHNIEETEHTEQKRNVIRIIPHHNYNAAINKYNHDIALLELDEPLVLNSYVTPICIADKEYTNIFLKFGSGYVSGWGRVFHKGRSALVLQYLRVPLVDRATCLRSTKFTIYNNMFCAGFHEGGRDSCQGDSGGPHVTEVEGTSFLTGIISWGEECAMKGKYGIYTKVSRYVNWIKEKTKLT

The IC50 is the concentration at which inhibition is half-maximal. Read a high IC50 as lower potency.

Molecule `Cc1ccc(CN2CCO[C@H]([C@@H](O)C(=O)Nc3ccc(C(=N)N)cc3)C2=O)cc1` gave an IC50 of 130 nM.
